The values that follow are results of earlier work, collected in patent publication US20260077140A1, “METERED DOSE INHALER FOR IPRATROPIUM BROMIDE SOLUTION” (Glenmark Pharmaceuticals Limited, priority 2024, published 2026).

Read-outs that look alike come from different tables or passages of the source.

The conditions of this series: aerosol solution in HFA-134(a) and about 35% ethanol, stored at 50° C.

For `CC(C)[N+]1(C)[C@@H]2CC[C@H]1CC(OC(=O)C(CO)c1ccccc1)C2.[Br-]` (some centres unmarked) [ipratropium bromide], the “decomposition of the ipratropium bromide” value was “significant decomposition”. Moreover, the “decomposition of the ipratropium bromide” value (addition of 1% water) is reported as “reduced the decomposition due to dehydration”.
